Results published in patent publication US10590143B2, “Herbicidally active (alkynyl-phenyl)-substituted cyclic dione compounds and derivatives thereof” (Syngenta Limited, priority 2013, dated 2020).
Read-outs that look alike come from different tables or passages of the source.

Assays:
Type in all cases: in vivo
[1] = tested on: Zea mays (ZEAMX, corn, maize, e.g. volunteer corn); assay: Biological Example 1 glasshouse assay for herbicidal activity; conditions: 13 days after application; for pest or weed control at 8 g/ha / pest or weed control at 30 g/ha / pest or weed control at 250 g/ha: Zea mays, 312 h, read-out: percentage phytotoxicity ZEAMX; for pest or weed control at 250 g/ha / percentage phytotoxicity ZEAMX: 250 g/ha
Description: (§1) Seeds of a variety of test plant species were sown in standard soil** in pots. After cultivation for one day (pre-emergence) or after 8 days cultivation (post-emergence) under controlled conditions in a glasshouse (at 24/16° C., day/night; 14 hours light; 65% humidity), the plants were sprayed with an aqueous spray solution derived from the formulation of the technical active ingredient (the test herbicide) in acetone/water (50:50) solution containing 0.5% Tween 20 (polyoxyethylene sorbitan monolaurate, CAS Reg. No. 9005-64-5). The test plants were then grown on under controlled conditions in a glasshouse (at 24/16° C., day/night; 14 hours light; 65% humidity) and watered twice daily. 13 Days after application of the test herbicide, for pre- and post-emergence, the test was evaluated visually for percentage phytotoxicity to each plant (where 100%=total damage to plant; 0%=no damage to plant). Generally, each test herbicide is only tested on 1 plant per plant species for each application rate tested and for each application timing. **The “standard soil” in Biological Example 1 is usually a “sand” or “sandy loam” type of soil.
(§2) Dicotyledonous weeds: ABUTH=Abutilon theophrasti; AMARE=Amaranthus retroflexus. Grassy monocotyledonous weeds: SETFA=Setaria faberi; ALOMY=Alopecurus myosuroides; ECHCG=Echinochloa crus-galli; ZEAMX=Zea mays (corn, maize, e.g. volunteer corn).

[2] = tested on: Alopecurus myosuroides (ALOMY); assay: as above; conditions: 312 h, 13 days after application, read-out: percentage phytotoxicity ALOMY
Description: as §1, §2

Setaria faberi (SETFA) = assay: as above; conditions: 312 h, 13 days after application, read-out: percentage phytotoxicity SETFA
Description: as §1, §2

[3] = tested on: Echinochloa crus-galli (ECHCG); assay: as above; conditions: 13 days after application; for pest or weed control at 30 g/ha / pest or weed control at 250 g/ha: Echinochloa crus-galli, 312 h, read-out: percentage phytotoxicity ECHCG; for pest or weed control at 250 g/ha / percentage phytotoxicity ECHCG: 250 g/ha
Description: as §1, §2

[4] = tested on: Abutilon theophrasti (ABUTH); assay: as above; conditions: 312 h, 13 days after application, read-out: percentage phytotoxicity ABUTH
Description: as §1, §2

[5] = tested on: Amaranthus retroflexus (AMARE); assay: as above; conditions: 13 days after application; for pest or weed control at 8 g/ha / pest or weed control at 250 g/ha / pest or weed control at 30 g/ha: Amaranthus retroflexus, 312 h, read-out: percentage phytotoxicity AMARE
Description: as §1, §2

[6] = tested on: Brassica napus (BRSNN, rape); assay: Biological Example 2 glasshouse assay for herbicidal activity; conditions: post-emergence, 14 or 15 DAA, 0.2% v/v X-77
Description: (§3) Seeds of a variety of monocotyledonous and dicotyledonous test plants are sown in standard soil in pots. The plants are cultivated for one day (for pre-emergence) or for about 12 days (range=10-13 days) (for post-emergence) under controlled conditions in a glasshouse (warm climate species at 24/18° C., cool climate species at 20/16° C., both at day/night; 16 hours light; 65% humidity).
(§4) An “instant formulation”, known as the “IF50”, containing 50 g/litre (i.e. 5% w/v) of the “technical” (i.e. unformulated) active ingredient is prepared by dissolving the active ingredient in a mixture of organic solvents and emulsifier, details of which are provided in the Table below. This IF50 is then mixed with a small, variable amount of acetone to aid dissolution, before addition of a 0.2% v/v aqueous solution of the adjuvant X-77 (which is a mixture of alkyl aryl polyoxyethylene glycols and free fatty acids in isopropanol, CAS Registry number 11097-66-8), as the aqueous diluent, to form an aqueous spray solution which contains a predetermined concentration of the active ingredient (which varies depending on the application rate of the active ingredient to the plants) and 0.2% v/v of the adjuvant X-77. This aqueous spray solution is then sprayed onto the plants, after one day's cultivation (for pre-emergence) or after about 12 days' cultivation (for post-emergence).
(§5) The test plants are then grown on, in a glasshouse (greenhouse) under controlled conditions (at either 24/18° C. or 20/16° C. (day/night) as mentioned above; 16 hours light; 65% humidity) and are watered twice daily. Either 14 or 15 days after application of the herbicide (14 or 15 DAA) (for post-emergence), or 20 days after application of the herbicide (20 DAA) (for pre-emergence), the test plants are evaluated visually, and an assessed percentage phytotoxicity score is given for each herbicidal application on each plant species (where 100%=total damage to plant; 0%=no damage to plant).
(§6) Some of the typical test plants are as follows: • Cool climate crop plants: Triticum aestivum (TRZAW, winter wheat), Brassica napus (BRSNN, rape, also called oilseed rape or rapeseed), Beta vulgaris (BEAVA, sugarbeet). • Warm climate crop plants: Glycine max (GLXMA, soybean). • Cool climate (“cool season”) grassy monocotyledonous weeds: Alopecurus myosuroides (ALOMY), Avena fatua (AVEFA), Lolium perenne (LOLPE), Poa annua (POAAN), Bromus tectorum (BROTE). • Warm climate (“warm season”) grassy monocotyledonous weeds: Setaria faberi (SETFA), SORVU (Sorghum bicolor (L.) Moench ssp. Bicolor, or Sorghum vulgare Pers.), Digitaria sanguinalis (DIGSA), Echinochloa crus-galli (ECHCG), Brachiaria plantaginea (BRAPL); Zea mays (ZEAMX, corn, maize, e.g. volunteer corn).

[7] = tested on: SORVU (Sorghum bicolor (L.) Moench ssp. Bicolor, or Sorghum vulgare Pers.); assay: as above; conditions: post-emergence, 360 h, 14 or 15 DAA, 0.2% v/v X-77, read-out: percentage phytotoxicity SORVU
Description: as §3, §4, §5, §6

[8] = post-emergence, post-emergence, 250 g/ha
[9] = pre-emergence, pre-emergence, 250 g/ha
[10] = Brassica napus, 360 h, 250 g/ha, read-out: percentage phytotoxicity BRSNN

SMILES	pest or weed control at 30 g/ha ([1]; post-emergence, post-emergence) [%]	pest or weed control at 250 g/ha ([1]; post-emergence, post-emergence) [%]	pest or weed control at 30 g/ha ([1]; pre-emergence, pre-emergence) [%]	pest or weed control at 250 g/ha ([1]; pre-emergence, pre-emergence) [%]	pest or weed control at 30 g/ha ([2]; post-emergence) [%]	pest or weed control at 250 g/ha ([2]; post-emergence) [%]	pest or weed control at 30 g/ha ([2]; pre-emergence) [%]	pest or weed control at 250 g/ha ([2]; pre-emergence) [%]	pest or weed control at 250 g/ha (Setaria faberi (SETFA); post-emergence, post-emergence) [%]	pest or weed control at 250 g/ha (Setaria faberi (SETFA); pre-emergence, pre-emergence) [%]	pest or weed control at 30 g/ha ([3]; post-emergence, post-emergence) [%]	pest or weed control at 250 g/ha ([3]; post-emergence, post-emergence) [%]	pest or weed control at 250 g/ha ([3]; pre-emergence, pre-emergence) [%]	pest or weed control at 30 g/ha ([4]; pre-emergence, pre-emergence) [%]	pest or weed control at 250 g/ha [5, 8] [%]	pest or weed control at 30 g/ha ([5]; pre-emergence, pre-emergence) [%]	pest or weed control at 250 g/ha [5, 9] [%]	plant injury at 250 g/ha [6, 10] [%]	pest or weed control at 250 g/ha [7] [%]	pest or weed control at 30 g/ha (Setaria faberi (SETFA); pre-emergence, pre-emergence) [%]	also measured
CC#Cc1cc(F)c(C2C(=O)C3CCC(C3)C2=O)c(OC)c1 (centres unmarked) [Compound A1, 3-(2-Fluoro-6-methoxy-4-prop-1-ynyl-phenyl)-bicyclo[3.2.1]octane-2,4-dione]	100	100	100	100	100	100	100	100	100	100	100	100	100	0	30	0	20	80	100	–	pest or weed control at 8 g/ha ([1]; post-emergence, post-emergence): 100%; pest or weed control at 8 g/ha ([1]; pre-emergence, pre-emergence): 60%; percentage phytotoxicity ZEAMX ([1]; post-emergence): 100%; percentage phytotoxicity ZEAMX ([1]; pre-emergence): 100%; pest or weed control at 8 g/ha ([2]; post-emergence): 80%; pest or weed control at 8 g/ha ([2]; pre-emergence): 70%; pest or weed control at 8 g/ha (Setaria faberi (SETFA); pre-emergence, pre-emergence, 8 g/ha): 50%; percentage phytotoxicity ECHCG ([3]; post-emergence): 100%; percentage phytotoxicity ECHCG ([3]; pre-emergence): 100%; pest or weed control at 8 g/ha ([4]; post-emergence, post-emergence): 0%; pest or weed control at 8 g/ha ([4]; pre-emergence, pre-emergence): 0%; pest or weed control at 8 g/ha ([5]; post-emergence, post-emergence): 0%; pest or weed control at 8 g/ha ([5]; pre-emergence, pre-emergence): 0%; percentage phytotoxicity AMARE ([5]; post-emergence, 250 g/ha): 30%; plant injury at 30 g/ha ([6]; Brassica napus, 360 h, 30 g/ha, read-out: percentage phytotoxicity BRSNN): 40%; percentage phytotoxicity BRSNN ([6]; 250 g/ha): 80%; pest or weed control at 30 g/ha ([7]; 30 g/ha): 90%
CC#Cc1cc(F)c(C2C(=O)C3CCC(C)(C2=O)C3(C)C)c(OC)c1 (centres unmarked) [Compound A2]	100	100	60	100	80	90	70	90	90	100	100	100	100	60	0	10	40	10	90	70	pest or weed control at 30 g/ha (Setaria faberi (SETFA); post-emergence, post-emergence): 90%; pest or weed control at 30 g/ha ([3]; pre-emergence, pre-emergence): 90%; pest or weed control at 30 g/ha ([4]; post-emergence, post-emergence): 0%; pest or weed control at 250 g/ha ([4]; post-emergence, post-emergence): 0%; pest or weed control at 250 g/ha ([4]; pre-emergence, pre-emergence): 60%; pest or weed control at 30 g/ha ([5]; post-emergence, post-emergence): 0%
COc1cc(C#CCl)cc(F)c1C1C(=O)C2CCC(C2)C1=O (centres unmarked) [Compound A8, 3-[4-(2-chloroethynyl)-2-fluoro-6-methoxy-phenyl]bicyclo[3.2.1]octane-2,4-dione]	–	50	60	70	–	70	40	60	70	60	–	70	60	10	10	50	40	–	–	60	pest or weed control at 30 g/ha ([3]; pre-emergence, pre-emergence): 30%; pest or weed control at 250 g/ha ([4]; post-emergence, post-emergence): 0%; pest or weed control at 250 g/ha ([4]; pre-emergence, pre-emergence): 0%
